Results from patent US20240190904A1, “Heteroaryl compounds as inhibitors of RIP2 kinase, composition and application thereof” (Accro Bioscience (HK) Limited, priority 2021, published 2024).
In brackets after ≈: the same amount, converted by molar mass.

What was measured:
[1] = test system: IL-8 in THP-1 induced by MDP; assay: THP-1 cell assay, IL-8 ELISA after MDP; type: cell-based; conditions: Homo sapiens; test compounds 10 nM; THP-1, MDP induced
Description: Acute monoblastic and monocytic leukemia (THP-1) was obtained from ATCC (item NO. TIB-202™). The temperature of the sterile incubator is 37˜38° C., the osmotic pressure is 260˜320 mmol/L, the pH range is 7.2˜7.4, and the ratio of carbon dioxide gas is 5%.
Cells were seeded in 96-well plates. After an hour, cells were incubated with test compounds for 2 hours. MDP (10 μL) was added and incubated for 6 hours. The samples were centrifuged (3000 rmp/min) for 5 minutes. The concentration of IL-8 in the supernatants was detected by IL-8 ELISA.

[2] = Metabolic stability test, RLM; type: in vitro ADME; conditions: rat, liver microsomes; for CLint scaled at 1 μM: pH 7.4, read-out: Cl (mL/min/kg) RLM; for half-life at 1 μM: pH 7.4, read-out: T1/2 (min) RLM
Description: (§1) • 1. Buffers: • Buffer A: 1.0 L of 0.1 M monobasic Potassium Phosphate buffer containing 1.0 mM EDTA • Buffer B: 1.0 L of 0.1 M Dibasic Potassium Phosphate buffer containing 1.0 mM EDTA • Buffer C: 0.1 M Potassium Phosphate buffer, 1.0 mM EDTA, pH 7.4 by titrating 700 mL of buffer B with buffer A while monitoring with the pH meter. • 2. Reference compounds (Ketanserin) and test compounds spiking solution: • 500 μM spiking solution: add 10 μL of 10 mM DMSO stock solution into 190 μL ACN. • 1.5 μM spiking solution in microsomes (0.75 mg/mL): add 1.5 μL of 500 μM spiking solution and 18.75 μL of 20 mg/mL liver microsomes into 479.75 μL of Buffer C on ice. • 3. Prepare NADPH stock solution (6 mM) by dissolving NADPH into buffer C. • 4. Dispense 30 μL of 1.5 μM spiking solution containing 0.75 mg/mL microsomes solution to the assay plates designated for different time points (0-, 5-, 15-, 30-, 45-min) on ice. • 5. For 0-min time point, add 135 μL of ACN containing IS to the wells of 0-min plate and then add 15 μL of NADPH stock solution (6 mM). • 6. Pre-incubate all other plates at 37° C. for 5 minutes. • 7. Add 15 μL of NADPH stock solution (6 mM) to the plates to start the reaction and timing. • 8. At 5-min, 15-min, 30-min, and 45-min, add 135 μL of ACN containing IS to the wells of corresponding plates, respectively, to stop the reaction. • 9. After quenching, shake the plates at the vibrator (IKA, MTS 2/4) for 10 min (600 rpm/min) and then centrifuge at 5594 g for 15 min (ThermoMultifuge×3R). • 10. Transfer 50 μL of the supernatant from each well into a 96-well sample plate containing 50 μL of ultra pure water (Millipore, ZMQS50F01) for LC/MS analysis.

[3] = Metabolic stability test, DLM; type: in vitro ADME; conditions: dog, liver microsomes; for CLint scaled at 1 μM: pH 7.4, read-out: Cl (mL/min/kg) DLM; for half-life at 1 μM: pH 7.4, read-out: T1/2 (min) DLM
Description: as §1

[4] = Protein binding test (dialysis), dog; type: in vitro ADME; conditions: for fraction unbound at 5 h, 1 μM: dog plasma
Description: (§2) • 1. Spiking Solutions of Test and Reference Compounds • 1.1 Solution A (0.5 mM): Add 10 μL of 10 mM stock solution into 190 μL of DMSO. • 1.2 Solution B (0.02 mM): Add 8 μL of Solution A into 192 μL of 0.05 M sodium phosphate buffer. The final DMSO concentration in Solution B is 4%. • 2. Preparation of Test and Reference Compounds • 2.1 Preload a 96-well plate with 380 μL aliquots of plasma in the wells designated for plasma and buffer, respectively. • 2.2 Spike 20 μL of Solution B (0.02 mM of test and reference compounds) into the pre-loaded plasma in the 96-well plate. The final test concentration is 1 μM containing 0.2% DMSO. • 3. Dialysis Sample Loading • 3.1 Preparing plasma against buffer system (duplicate): Apply aliquots of 100 μL of blank dialysis buffer to the receiver side of dialysis chambers. Then apply aliquots of 100 μL of the plasma spiked with test and reference compounds to the donor side of the dialysis chambers. • 3.2 Preparing T0 plasma samples for initial concentrations (duplicate): • 3.2.1 Aliquot 25 μL of the plasma spiked with test and reference compounds into a 96-well sample preparation plate as T0 plasma samples • 3.2.2 Mix the aliquots with same volume of blank buffer (50:50, v/v). • 3.2.3 Quench the samples with 200 μL of acetonitrile containing internal standard (IS). • 3.3 Cover the dialysis block with a plastic lid and place the entire apparatus in a shaker (60 rpm) for 5 hours at 37° C. • 3.4 Preparing dialyzed samples after 5-hour incubation: • 3.4.1 Aliquot 25 μL from both the donor sides and receiver sides of the dialysis apparatus into new sample preparation plates and mix the aliquots with same volume of opposite matrixes (blank buffer to plasma and vice versa). • 3.4.2 Quench the samples with 200 μL acetonitrile containing internal standard (IS). Vortex all the samples (from 0 h and 5 h) at 600 rpm for 10 min followed by centrifugation at 5594 g for 15 minutes (ThermoMultifuge×3R). • 3.4.3 Transfer 50 μL of the supernatants to a new 96-well plate and mix the samples with 50 μL of Milli-Q water. Cover the sample plate and store it in a freezer (−20° C.) until LC/MS/MS analysis.

[5] = Thermodynamic solubility test; type: physicochemical; conditions: thermodynamic from solid; FaSSIF pH 6.5, thermodynamic
Description: • a. Add assay buffer into compound powder to make 4 mg/mL solution. • b. Sample tubes are shaken for 1 hour (1000 rpm), then equilibrated over night at room temperature. • c. Samples are centrifuged (10 min-12000 rpm) to precipitate un-dissolved particles. • d. Supernatants are transferred to new tubes. • e. Concentrations of the supernatants after centrifugation are determined by LCMSMS detection.

[6] = Protein binding test (dialysis), human; type: in vitro ADME; conditions: for fraction unbound at 5 h, 1 μM: human plasma
Description: as §2

[7] = Protein binding test (dialysis), rat; type: in vitro ADME; conditions: for fraction unbound at 5 h, 1 μM: rat plasma
Description: as §2

Compound | CLint scaled at 1 μM [2] [mL/min/kg] | half-life at 1 μM [2] [min] | CLint scaled at 1 μM [3] [mL/min/kg] | half-life at 1 μM [3] [min] | fraction unbound at 5 h, 1 μM [4] | solubility [5] [mM] | fraction unbound at 5 h, 1 μM [6] | fraction unbound at 5 h, 1 μM [7] | protein binding in dog (in words) ([4]; dog) | protein binding in human (in words) ([6]; human) | protein binding in rat (in words) ([7]; rat) | inhibition at 0.01 µM [1] [%]
CP(C)(=O)c1cc2c(Nc3ccc4scnc4c3)ccnc2cc1O[C@H]1CCOC1 [A14] | 38.6 | 64.4 | 5.58 | 619 | 0.165 | – | 0.177 | 0.073 | – | – | – | –
CP(C)(=O)c1cc2c(Nc3ccc4scnc4c3)ccnc2cc1O[C@@H]1CCOC1 [A15] | 49.5 | 50.2 | 4.16 | 831 | 0.129 | – | 0.188 | 0.059 | – | – | – | –
CP(C)(=O)c1cc2c(Nc3ccc4scnc4c3)ccnc2cc1OC1COC1 [A16] | 16.9 | 147 | – | – | 0.145 | – | 0.195 | 0.069 | – | – | – | –
CP(C)(=O)c1cc2c(Nc3ccc4scnc4c3)ccnc2cc1OC(F)(F)F [A24] | – | – | – | – | 0.01 | – | 0.013 | 0.001 | high protein binding | high protein binding | high protein binding | –

More lines, main results first:

CLint scaled at 1 μM [2] [mL/min/kg] | half-life at 1 μM [2] [min] | CLint scaled at 1 μM [3] [mL/min/kg] | half-life at 1 μM [3] [min] | fraction unbound at 5 h, 1 μM [4] | solubility [5] [mM] | fraction unbound at 5 h, 1 μM [6] | fraction unbound at 5 h, 1 μM [7] | protein binding in dog (in words) ([4]; dog) | protein binding in human (in words) ([6]; human) | protein binding in rat (in words) ([7]; rat) | Compound | inhibition at 0.01 µM [1] [%]
25.9 | 95.7 | 5.21 | 664 | 0.138 | 6.12 (≈ 2340 µg/mL) | 0.124 | 0.019 | – | – | – | COc1cc2nccc(Nc3ccc4scnc4c3)c2cc1P(C)(C)=O [A6] | 50
17 | 146 | 2.58 | 1340 | – | 5.31 (≈ 2200 µg/mL) | – | – | – | – | – | CP(C)(=O)c1cc2c(Nc3ccc4scnc4c3)ccnc2cc1OCCO [A7, (4-(benzo[d]thiazol-5-ylamino)-7-(2-hydroxyethoxy)quinolin-6-yl)dimethylphosphine oxide] | 25
25.9 | 95.7 | 13.7 | 253 | – | 1.04 (≈ 444 µg/mL) | – | – | – | – | – | COCCOc1cc2nccc(Nc3ccc4scnc4c3)c2cc1P(C)(C)=O [A8] | 51
63.9 | 38.9 | 30.1 | 115 | – | 0.283 (≈ 128 µg/mL) | – | – | – | – | – | CC1(COc2cc3nccc(Nc4ccc5scnc5c4)c3cc2P(C)(C)=O)COC1 [A9] | 55
